Read-outs that look alike come from different tables or passages of the source.
Tested on: apomorphine-induced climbing
Experiment: Climbing Mice Assay (block of apomorphine-induced climbing)
Type: in vivo, CK-1 male mice
Details: Mus musculus, ip, read-out: Antipsychotic Activity (Climbing Mice Assay) ED50
Protocol: The subject CK-1 male mice (23-27 grams) are group-housed under standard laboratory conditions. The mice are individually placed in wire mesh stick cages (4"×4" 10) and are allowed one hour for adaptation and exploration of the new environment.
For evaluation of climbing, three readings are taken at 10, 20 and 30 minutes after apomorphine administration according to the following scale: […]
Mice consistently climbing before the injection of apormorphine are discarded.
With full-developed apomorphine climbing, the animals are hanging onto the cage walls, rather motionless, over longer periods of time. By contrast, climbs due to mere motor stimulation usually last only a few seconds.
The climbing scores are individually totaled (maximal score; 6 per mouse over three readings) and the total score of the control group (vehicle intraperitioneally-apomorphine subcutaneously) is set to 100%.

Compound	ED50 (CK-1 male mice, compound i.p. 30 minutes prior to apomorphine 1.5 mg/kg s.c., readings at 10, 20 and 30 minutes, linear regression) [mg/kg]	ED50 [mg/kg]
COc1cc(C(C)=O)ccc1OCCCN1CCN(c2csc3cc(F)ccc23)CC1 [1-[4-[3-[4-(6-Fluorobenzo[b]thiophen-3-yl)-1-piperazinyl]propoxy]-3-methoxyphenyl]ethanone]	1.42	–
O=C(CCCN1CCC(O)(c2ccc(Cl)cc2)CC1)c1ccc(F)cc1 [Haloperidol]	–	0.33
